# According to paper PMC10730852 (Communications Biology, 2023):
# Values joined by “and” are separate entries in the source; they are usually repeats but may differ in a detail not shown here. Identical values can stand only once. Like-named read-outs stand apart in the source and are kept apart here. Starred links: 1 amine or outer side, 2 acyl side, 3 side chain; linkers in the order of their positions; H or OH if unused. Positions of bridges follow the written chain, without caps; N, C: chain ends. Non-standard residues stand in square brackets, D forms with d. Residues, ends and D or L forms follow the SMILES beside them. *: point of attachment. X1 = NC1=N[C@@H]([C@H](N[*:1])C(=O)[*:2])C[C@H](O)N1; ΔAla(Z-3-ureido) = NC(=O)N/C=C(\N)C(=O)O; β3hOrn = NCCC[C@H](N)CC(=O)*; Dap = NC[C@H](N)C(=O)O
# How the values were obtained:
# [1] = tested on: Cph001; experiment: Coupled enzyme assay and Michaelis-Menten kinetics of Cph001; type: biochemical, Streptosporangium roseum; parameters: initial velocity, Figure 3c iii, Triplicate: unit not given here; conditions: for initial velocity, Figure 3c iii, Triplicate / initial velocity, Figure 3c iv, Triplicate: 20 mM CMN IIA; for kcat, phosphate donor varied / Km: in the presence of saturating CMN IIA (20 mM), mean ± SEM, n = 3; for Km: read-out: apparent Km of the phosphate donor; for phosphorylation by Cph001 in couple enzyme assay: 2 mM antibiotic substrate, ATP as phosphate donor, absorbance at 340 nm; for absorbance at 340 nm, Average of triplicate: 2 mM substrate + ATP
# Method: The phosphorylation reaction was measured by a coupled enzyme assay as following. […] The reactions were mixed well in a final volume of 200 μL in 96-well plates. The Cph001 activity was assayed by determining the oxidation of NADH at 340 nm. The reaction buffer and enzyme concentration of the Cph reaction was followed by previous study. The 340 nm absorbance changes were detected at 30 °C for every 1 min at a time in 15 min on an EPOCH Microplate Reader (BioTek). All reactions were carried out in triplicate.
# The initial velocity data were plotted against substrate concentrations and fit the Michaelis-Menten equation. The Km and Vmax values were calculated based on the Michaelis-Menten equation. GraphPad Prism was used for statistical data analysis. All reactions were carried out in triplicate.
# [2] = tested on: E. coli/pET-22b (Control); experiment: Disk diffusion assay; type: cell-based, E. coli BL21 Rosetta (DE3); conditions: Escherichia coli, 37 °C, 24 hr, read-out: inhibition zones; for zone of inhibition at 12.5 µg/disc: 12.5 μg on disk; for zone of inhibition at 50 µg/disc: 50 μg on disk; for zone of inhibition at 100 µg/disc: 100 μg on disk; for zone of inhibition at 200 µg/disc: 200 μg on disk
# Method: The E. coli BL21 Rosetta (DE3) strains containing pET22b, and its carrying cph, cph001, cph002, cph003, aph(3′)-Ia, and mphB plasmids were cultured overnight. The cells, respectively, were then diluted to 0.1 OD600 in molten LB agar with 100 μg/mL ampicillin and 500 μM IPTG for the disk diffusion assay. The cells with ampicillin and IPTG were mixed well with molten LB agar and then poured into 10 cm diameter Petri dishes. […] The Petri dishes were placed in the incubator at 37 °C and the inhibition zones were observed after 24 hr.
# [3] = tested on: E. coli/cph001; experiment: Disk diffusion assay; type: cell-based, E. coli BL21 Rosetta (DE3); conditions: for resistance in disk diffusion assay: E. coli harboring cph001; for zone of inhibition at 12.5 µg/disc / zone of inhibition at 50 µg/disc / zone of inhibition at 100 µg/disc / zone of inhibition at 200 µg/disc: Escherichia coli, 24 h, read-out: inhibition zones
# Method: (§1) The E. coli BL21 Rosetta (DE3) strains containing pET22b, and its carrying cph, cph001, cph002, cph003, aph(3′)-Ia, and mphB plasmids were cultured overnight. The cells, respectively, were then diluted to 0.1 OD600 in molten LB agar with 100 μg/mL ampicillin and 500 μM IPTG for the disk diffusion assay. The cells with ampicillin and IPTG were mixed well with molten LB agar and then poured into 10 cm diameter Petri dishes. The 7 mm disks were placed onto the LB agar and gently loaded with varying quantities of CMN IIA, CMN IIB, VIO, Kan, and Ery, ranging from 0 to 200 μg. The Petri dishes were placed in the incubator at 37 °C and the inhibition zones were observed after 24 hr.
# [4] = tested on: E. coli/cph; experiment: Disk diffusion assay; type: cell-based, E. coli BL21 Rosetta (DE3); conditions: Escherichia coli, 24 h, read-out: inhibition zones
# Method: as §1
# [5] = molecular target: T1, Cph001 (Streptosporangium roseum, UniProt D2B3F1); experiment: Isothermal titration calorimetry (ITC) analysis of Cph001; type: binding
# T1 sequence (D2B3F1 1-286): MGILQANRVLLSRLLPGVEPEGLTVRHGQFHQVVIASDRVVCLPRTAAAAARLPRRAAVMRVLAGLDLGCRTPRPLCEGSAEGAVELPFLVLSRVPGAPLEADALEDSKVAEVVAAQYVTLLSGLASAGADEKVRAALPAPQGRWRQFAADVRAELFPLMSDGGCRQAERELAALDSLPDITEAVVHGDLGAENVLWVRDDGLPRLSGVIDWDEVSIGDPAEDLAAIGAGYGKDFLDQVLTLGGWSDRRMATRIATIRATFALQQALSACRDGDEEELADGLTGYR
# Source text: The integrated heat areas constitute a differential binding curve that was fitted with a standard single-site binding model by Origin 7.
# [6] = molecular target: Cph; parameters: method as in ACS Chem. Biol. 17, 138, 2022; conditions: ITC; ref ACS Chem. Biol. 17, 138, 2022; read-out: KD values for Cph interaction; cited from earlier work
# [7] = tested on: E. coli/mphB; experiment: Disk diffusion assay; type: cell-based, E. coli BL21 Rosetta (DE3); conditions: Escherichia coli, 24 h, read-out: inhibition zones
# Method: as §1
# [8] = parameters: method as in earlier work; conditions: ref Antimicrob. Agents Chemother. 60, 4786, 2016 and Antimicrob. Agents Chemother. 62, e01724, 2018, cited from earlier work
molecule,measurement,setting,value
Nc1ncnc2c1ncn2C1OC(COP(=O)(O)OP(=O)(O)OP(=O)(O)O)C(O)C1O (centres unmarked) [ATP],"initial velocity, Figure 3c iii, Triplicate",[1]; 0.01 mM ATP,0.0001332 and 0.000121 and 0.0001197
same,"initial velocity, Figure 3c iii, Triplicate",[1]; 0.02 mM ATP,0.0001161 and 0.0001344 and 0.0001332
same,"initial velocity, Figure 3c iii, Triplicate",[1]; 0.05 mM ATP,0.0002407 and 0.0001564 and 0.0001833
same,"initial velocity, Figure 3c iii, Triplicate",[1]; 0.1 mM ATP,0.0002407 and 0.0002053 and 0.0001552
same,"initial velocity, Figure 3c iii, Triplicate",[1]; 0.2 mM ATP,0.0003336 and 0.0003519 and 0.0003385
same,"initial velocity, Figure 3c iii, Triplicate",[1]; 0.4 mM ATP,0.0003201 and 0.0003715 and 0.0003678
same,"initial velocity, Figure 3c iii, Triplicate",[1]; 0.6 mM ATP,0.0004387 and 0.0003983
same,"initial velocity, Figure 3c iii, Triplicate",[1]; 0.8 mM ATP,0.0003825 and 0.0004668 and 0.0004985
same,"kcat, phosphate donor varied",[1],0.58 ± 0.03 min⁻¹
same,Km,[1],70 ± 20 µM
C[C@@H]1NC(=O)[C@@H](N)CNC(=O)[C@H](C2CCNC(=N)N2)NC(=O)/C(=C/NC(N)=O)NC(=O)[C@H](CNC(=O)C[C@@H](N)CCCN)NC1=O (some centres unmarked) [CMN IIB],zone of inhibition at 12.5 µg/disc,[2],17 mm
same,zone of inhibition at 50 µg/disc,[2],23 mm
same,zone of inhibition at 100 µg/disc,[2],25 mm
same,zone of inhibition at 200 µg/disc,[2],27 mm
same,resistance in disk diffusion assay,[3],capable of endowing E. coli with resistance
same,zone of inhibition at 12.5 µg/disc,[3],11 mm
same,zone of inhibition at 50 µg/disc,[3],14 mm
same,zone of inhibition at 100 µg/disc,[3],16 mm
same,zone of inhibition at 200 µg/disc,[3],17.5 mm
same,zone of inhibition at 50 µg/disc,[4],12 mm
same,zone of inhibition at 100 µg/disc,[4],14 mm
same,zone of inhibition at 200 µg/disc,[4],16 mm
same,phosphorylation by Cph001 in couple enzyme assay,[1],incapable of phosphorylating
same,Kd,[5],55.2 ± 4.4 µM
same,Kd,[6],5.48 µM
"CC[C@H]1OC(=O)[C@H](C)[C@@H](O[C@H]2C[C@@](C)(OC)[C@@H](O)[C@H](C)O2)[C@H](C)[C@@H](O[C@@H]2O[C@H](C)C[C@H](N(C)C)[C@H]2O)[C@](C)(O)C[C@@H](C)C(=O)[C@H](C)[C@@H](O)[C@]1(C)O [Ery, erythromycin]",zone of inhibition at 12.5 µg/disc,[2],24 mm
same,zone of inhibition at 50 µg/disc,[2],27 mm
same,zone of inhibition at 100 µg/disc,[2],29 mm
same,zone of inhibition at 200 µg/disc,[2],31 mm
same,zone of inhibition at 12.5 µg/disc,[3],23 mm
same,zone of inhibition at 200 µg/disc,[3],32 mm
same,zone of inhibition at 12.5 µg/disc,[7],15.5 mm
same,zone of inhibition at 50 µg/disc,[7],21.5 mm
same,zone of inhibition at 100 µg/disc,[7],23 mm
same,zone of inhibition at 200 µg/disc,[7],24 mm
same,phosphorylation by Cph001 in couple enzyme assay,[1],only capable of phosphorylating VIO
Nc1nc2c(ncn2[C@@H]2O[C@H](COP(=O)(O)OP(=O)(O)OP(=O)(O)O)[C@@H](O)[C@H]2O)c(=O)[nH]1 [GTP],"initial velocity, Figure 3c iv, Triplicate",[1]; 0.02 mM GTP,9.164e-5 and 7.331e-5 and 0.0001283
same,"initial velocity, Figure 3c iv, Triplicate",[1]; 0.05 mM GTP,9.164e-5 and 0.0001521 and 0.0001466
same,"initial velocity, Figure 3c iv, Triplicate",[1]; 0.1 mM GTP,0.0002053 and 0.0001576 and 0.0002218
same,"initial velocity, Figure 3c iv, Triplicate",[1]; 0.2 mM GTP,0.0003519 and 0.0003501 and 0.0003886
same,"initial velocity, Figure 3c iv, Triplicate",[1]; 0.4 mM GTP,0.0005242 and 0.0006232 and 0.0004326
same,"initial velocity, Figure 3c iv, Triplicate",[1]; 0.6 mM GTP,0.0006012 and 0.0005554 and 0.000493
same,"initial velocity, Figure 3c iv, Triplicate",[1]; 1 mM GTP,0.0006525 and 0.0006232 and 0.000592
same,"initial velocity, Figure 3c iv, Triplicate",[1]; 2 mM GTP,0.0006287 and 0.0006397 and 0.0005095
same,"kcat, phosphate donor varied",[1],0.91 ± 0.04 min⁻¹
same,Km,[1],180 ± 30 µM
"NC[C@H]1O[C@H](O[C@H]2[C@H](O)[C@@H](O[C@H]3O[C@H](CO)[C@@H](O)[C@H](N)[C@H]3O)[C@H](N)C[C@@H]2N)[C@H](O)[C@@H](O)[C@@H]1O [Kan, kanamycin]",phosphorylation by Cph001 in couple enzyme assay,[1],only capable of phosphorylating VIO
"NCCC[C@H](N)CC(=O)N[C@H]1CNC(=O)[C@H]([C@H]2C[C@H](O)NC(N)=N2)NC(=O)/C(=C/NC(N)=O)NC(=O)[C@H](CO)NC(=O)[C@H](CO)NC1=O [VIO, viomycin] (β3hOrn-[Dap]SS[ΔAla(Z-3-ureido)][X1]; lactam 1-C)",zone of inhibition at 12.5 µg/disc,[2],23.5 mm
same,zone of inhibition at 50 µg/disc,[2],27 mm
same,zone of inhibition at 100 µg/disc,[2],29 mm
same,zone of inhibition at 200 µg/disc,[2],30 mm
same,resistance in disk diffusion assay,[3],resistant
same,zone of inhibition at 12.5 µg/disc,[3],8 mm
same,zone of inhibition at 50 µg/disc,[3],12 mm
same,zone of inhibition at 100 µg/disc,[3],15 mm
same,zone of inhibition at 200 µg/disc,[3],17.5 mm
same,zone of inhibition at 12.5 µg/disc,[4],8.5 mm
same,zone of inhibition at 50 µg/disc,[4],10 mm
same,zone of inhibition at 100 µg/disc,[4],11 mm
same,zone of inhibition at 200 µg/disc,[4],12 mm
same,phosphorylation by Cph001 in couple enzyme assay,[1],only capable of phosphorylating VIO
same,"absorbance at 340 nm, Average of triplicate",[1]; time 00:00:00,1.495
same,"absorbance at 340 nm, Average of triplicate",[1]; time 00:01:00,1.515
same,"absorbance at 340 nm, Average of triplicate",[1]; time 00:02:00,1.474
same,"absorbance at 340 nm, Average of triplicate",[1]; time 00:03:00,1.3778
same,"absorbance at 340 nm, Average of triplicate",[1]; time 00:04:00,1.2968
same,"absorbance at 340 nm, Average of triplicate",[1]; time 00:05:00,1.217
same,"absorbance at 340 nm, Average of triplicate",[1]; time 00:06:00,1.012
same,"absorbance at 340 nm, Average of triplicate",[1]; time 00:07:00,0.8175
same,"absorbance at 340 nm, Average of triplicate",[1]; time 00:08:00,0.6031
same,"absorbance at 340 nm, Average of triplicate",[1]; time 00:09:00,0.4177
same,"absorbance at 340 nm, Average of triplicate",[1]; time 00:10:00,0.2691
same,"absorbance at 340 nm, Average of triplicate",[1]; time 00:11:00,0.254
same,"absorbance at 340 nm, Average of triplicate",[1]; time 00:12:00,0.2155
same,"absorbance at 340 nm, Average of triplicate",[1]; time 00:13:00,0.1675
same,"absorbance at 340 nm, Average of triplicate",[1]; time 00:14:00,0.1401
same,"absorbance at 340 nm, Average of triplicate",[1]; time 00:15:00,0.1225
same,Kd,[5],4.18 ± 0.68 µM
capreomycin,MIC,[8]; approximate molar equivalent,1.5 to 4.5 µM
same,MIC,[8],1 to 3 µg/mL
